Holding throughout (type): organism-based
Series [1] concerns Solanum lycopersicum. In words: Toxicity against Solanum lycopersicum (tomato) H9909 assessed as decrease in crop injury at 100 g ai/ha pretransplant application measured at 28 days after crop transplanting. More on the design: scale not given: the % may be the effect or the level left. Particulars: in vivo, other, 672 h.
In series [2] the test system is Solanum tuberosum. In words: Toxicity against Solanum tuberosum Superior (potato) assessed as dose required to cause 5% visible injury applied within 3 days after seeding measured at 28 days after crop emergence. To be noted: in vivo, 672 h.
Series [3] has as its system Solanum lycopersicum. Description: Toxicity against Solanum lycopersicum (tomato) H9909 assessed as reduction in plant dry weight at 100 g ai/ha pretransplant application measured at 28 days after crop transplanting. Set-up: scale not given: the % may be the effect or the level left. Particulars: in vivo, other, 672 h.
In series [4] the test system is Capsicum annuum. Description: Toxicity against Capsicum annuum Socrates (pepper) assessed as dose required to cause 5% visible injury applied within 3 days prior to transplantation measured at 28 days after crop transplanting. To be noted: in vivo, 672 h.
Series [5] has as its system Capsicum annuum. Description: Toxicity against Capsicum annuum Socrates (pepper) assessed as decrease in crop injury at 100 g ai/ha pretransplant application measured at 28 days after crop transplanting. Set-up: scale not given: the % may be the effect or the level left. To be noted: in vivo, other, 672 h.
Series [6] has as its system Solanum lycopersicum. In words: Toxicity against Solanum lycopersicum (tomato) H9909 assessed as decrease in marketable yield at 100 g ai/ha pretransplant application measured at maturity of the crop. More on the design: scale not given: the % may be the effect or the level left. To be noted: in vivo, other.
Series [7] deals with Solanum lycopersicum. Description: Toxicity against Solanum lycopersicum (tomato) H9909 assessed as dose required to cause 5% growth reduction applied within 3 days prior to transplantation measured at 28 days after crop transplanting. Particulars: in vivo, 672 h.
The subject of series [8] is Solanum tuberosum. Description: Toxicity against Solanum tuberosum Superior (potato) assessed as reduction in plant dry weight at 100 g ai/ha preemergence application measured at 28 days after crop emergence. Set-up: scale not given: the % may be the effect or the level left. To be noted: in vivo, other, 672 h.
Series [9] relates to Solanum tuberosum. In words: Toxicity against Solanum tuberosum Superior (potato) assessed as decrease in marketable yield at 100 g ai/ha preemergence application measured at maturity of the crop. More on the design: scale not given: the % may be the effect or the level left. To be noted: in vivo, other.
The subject of series [10] is Solanum tuberosum. Description: Toxicity against Solanum tuberosum Superior (potato) assessed as dose required to cause 5% yield loss applied within 3 days after seeding measured at maturity of the crop. Particulars: in vivo, 72 h.
Series [11] deals with Capsicum annuum. In words: Toxicity against Capsicum annuum Socrates (pepper) assessed as dose required to cause 5% growth reduction applied within 3 days prior to transplantation measured at 28 days after crop transplanting. To be noted: in vivo, 672 h.
In series [12] the test system is Solanum lycopersicum. Description: Toxicity against Solanum lycopersicum (tomato) H9909 assessed as dose required to cause 5% yield loss applied within 3 days prior to transplantation measured at maturity of the crop. Particulars: in vivo, 72 h.
The test system of series [13] is Solanum tuberosum. Description: Toxicity against Solanum tuberosum Superior (potato) assessed as decrease in crop injury at 100 g ai/ha preemergence application measured at 28 days after crop emergence. Set-up: scale not given: the % may be the effect or the level left. Particulars: in vivo, other, 672 h.
For series [14], the system named is Capsicum annuum. Description: Toxicity against Capsicum annuum Socrates (pepper) assessed as decrease in marketable yield at 100 g ai/ha pretransplant application measured at maturity of the crop. To be noted: in vivo, other. Set-up: scale not given: the % may be the effect or the level left.
Series [15] relates to Solanum tuberosum. Description: Toxicity against Solanum tuberosum Superior (potato) assessed as dose required to cause 5% growth reduction applied within 3 days after seeding measured at 28 days after crop emergence. To be noted: in vivo.
Series [16] deals with Capsicum annuum. In words: Toxicity against Capsicum annuum Socrates (pepper) assessed as reduction in plant dry weight at 100 g ai/ha pretransplant application measured at 28 days after crop transplanting. To be noted: in vivo, other, 672 h. Set-up: scale not given: the % may be the effect or the level left.
The subject of series [17] is Solanum lycopersicum. Description: Toxicity against Solanum lycopersicum (tomato) H9909 assessed as dose required to cause 5% visible injury applied within 3 days prior to transplantation measured at 28 days after crop transplanting. Particulars: in vivo, 672 h.
Series [18] deals with Capsicum annuum. In words: Toxicity against Capsicum annuum Socrates (pepper) assessed as dose required to cause 5% yield loss applied within 3 days prior to transplantation measured at maturity of the crop. To be noted: in vivo, 72 h.
The subject of series [19] is Capsicum annuum. Description: Toxicity against Capsicum annuum (pepper) assessed as crop injury at 420 g ai/ha pretransplant application. Particulars: in vivo, other.

Structures are written as SMILES.

Turning to `CC(C)N(C)S(=O)(=O)NC(=O)c1cc(-n2c(=O)cc(C(F)(F)F)n(C)c2=O)c(F)cc1Cl` [SAFLUFENACIL], the Activity in the series with Solanum lycopersicum [1] turned out to be 29%; in the series with Solanum tuberosum [2] it was 105 gAi/ha; with Solanum lycopersicum [3], 73%; in the series on Capsicum annuum [4], 15.4 gAi/ha; with Capsicum annuum [5], 32%; in the series with Solanum lycopersicum [6], 57%. For the same molecule, the Activity is given as 6.7 gAi/ha with Solanum lycopersicum [7]; 30% with Solanum tuberosum [8]; 18% in the series on Solanum tuberosum [9]; 19.7 gAi/ha in the series with Solanum tuberosum [10]; 5.6 gAi/ha with Capsicum annuum [11]; 8.8 gAi/ha in the series with Solanum lycopersicum [12]. Moreover, the Activity with Solanum tuberosum [13] amounted to 5%; with Capsicum annuum [14], 69%; in the series with Solanum tuberosum [15], 15.5 gAi/ha; in the series on Capsicum annuum [16], 82%; in the series on Solanum lycopersicum [17] it was 17.5 gAi/ha; with Capsicum annuum [18], 7 gAi/ha.

Turning to `Cc1nn(-c2cc(NS(C)(=O)=O)c(Cl)cc2Cl)c(=O)n1C(F)F` [SULFENTRAZONE], the Activity with Capsicum annuum [19] is listed as 65%.

Values taken from ChEMBL document CHEMBL3045517, “Tolerance of tomato, pepper and potato to pre-emergence applications of saflufenacil” (Crop Prot, 2012).
